According to publication PMC9101087, “A Sensitive LC-MS/MS Method for the Simultaneous Determination of Two Thia-Analogous Indirubin N-Glycosides and Indirubin-3′-Monoxime in Plasma and Cell Culture Medium” (Molecules, 2022):

Assay: Quantification of KD87 in plasma of mice after intraperitoneal injection
Format: in vivo
Conditions: male, NSG (NOD.Cg-Prkdc^scid Il2rg^tm1Wjl/SzJ), mouse, ip, 20 mg/kg, 20 mg/kg intraperitoneal, mean ± SD n = 8
Experimental: To apply the method validated for plasma, an animal experiment was performed in which KD87 (20 mg/kg body weight) was injected intraperitoneally into NOD.Cg-Prkdc^scid Il2rg^tm1Wjl/SzJ (NSG) mice followed by determination of the plasma concentration of KD87 at two fixed time points, i.e., 30 and 60 min, after administration. For this initial investigation, KD87 was selected because it has shown viability-reducing effects on a large panel of tumor cells both in the present study and in a previous study, making it a good candidate for future in vivo experiments.
Before starting plasma extraction and protein precipitation, 10 µL of the sample plasma was mixed with 40 µL of human plasma. After appropriate sample preparation by protein precipitation or liquid-liquid extraction, KD87 was successfully detected and quantified by LC-MS/MS. Here, for each blood draw, two separate plasma aliquots were extracted or precipitated and subsequently measured. In addition, the MRM transitions of the aglycone KD88 were monitored during the measurement to observe possible deglycosylation of KD87. […] Individual concentrations are presented for each mouse separately (Figure 5A,B) and as averages of the four treated mice (Figure 5C). For protein precipitation, a concentration of 1.89 ± 0.30 µM was determined 30 min after intraperitoneal injection, increasing to 2.93 ± 0.36 µM after 60 min (Figure 5C). Similar values are obtained after liquid-liquid extraction of plasma sample, which yielded a concentration of 2.19 ± 0.32 µM and 3.46 ± 0.50 µM after 30 and 60 min, respectively (Figure 5C).
Figure 5 Quantification of KD87 in plasma of mice 30 and 60 min after intraperitoneal injection of KD87 (20 mg/kg body weight). Prior to sample processing, mouse plasma was diluted 1:5 with human plasma. Shown are the individual values of KD87 in mouse plasma (A) after protein precipitation and (B) after liquid-liquid extraction, as well as (C) the average KD87 concentration values of all four mice for both processing methods. (A,B): The values of two separately processed plasma aliquots of one blood sample per mouse are shown. (C): The bar chart summarizes the results of measurements from panels (A,B), expressed as mean ± standard deviation (SD) of n = 8 values per column.
For experiments, four 13-week-old male NSG mice with a body weight between 20 and 30 g were used. KD87 was administered via intraperitoneal injection at a dose of 20 mg/kg body weight. For this purpose, KD87 was dissolved in ethanol and Cremophore EL (1:1) to a concentration of 6 mg/mL, and diluted further in sterile saline solution (NaCl 0.9%, B. Braun Melsungen AG, Melsungen, Germany) to a final concentration of 2 mg/mL. Per mouse, a total volume of 10 mL/kg of body weight was administered. […]

Structure (SMILES): O=C1/C(=C2/C(=O)N([C@@H]3O[C@H](CO)[C@@H](O)[C@H](O)[C@H]3O)c3ccccc32)Sc2ccccc21 [KD87, 3-[3′-oxo-benzo[b]thiophen-2′-(Z)-ylidene]-1-(β-D-glucopyranosyl)-oxindole]
- concentration at 30 min (liquid-liquid extraction): 2190 ± 320 nM
- concentration at 30 min (protein precipitation): 1890 ± 300 nM
- concentration at 60 min (liquid-liquid extraction): 3.46 ± 0.5 µM
- concentration at 60 min (protein precipitation): 2.93 ± 0.36 µM
